What is called pKi is −log10 of the Ki, conventionally taken in molar units.

In BindingDB's records for doi:10.1046/j.1471-4159.2000.0750413.x (Oregon State University, 2000) one finds Ki data, which are given here for four molecules.

The structures appear in SMILES notation. pKi: −log10 of the molar value.

Cannabinoid receptor 1, sequence (Q9PUI7 whole entry): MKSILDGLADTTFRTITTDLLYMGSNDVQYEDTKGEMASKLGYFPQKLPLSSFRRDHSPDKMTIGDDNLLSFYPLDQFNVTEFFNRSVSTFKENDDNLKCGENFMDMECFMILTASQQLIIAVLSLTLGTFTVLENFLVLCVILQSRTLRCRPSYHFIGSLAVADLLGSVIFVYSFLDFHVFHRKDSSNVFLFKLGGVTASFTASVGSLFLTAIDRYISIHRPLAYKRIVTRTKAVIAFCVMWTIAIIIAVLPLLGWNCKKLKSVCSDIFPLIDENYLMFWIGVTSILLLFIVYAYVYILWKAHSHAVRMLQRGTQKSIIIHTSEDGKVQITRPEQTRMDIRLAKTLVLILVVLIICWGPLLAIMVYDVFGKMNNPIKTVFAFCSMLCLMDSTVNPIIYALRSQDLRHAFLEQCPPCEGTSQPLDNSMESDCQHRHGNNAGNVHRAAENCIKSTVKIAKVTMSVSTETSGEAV

This test concerns the target Cannabinoid receptor 1 (Taricha granulosa, UniProt Q9PUI7).
Turning to `Cc1c(C(=O)c2cccc3ccccc23)c2cccc3c2n1[C@H](CN1CCOCC1)CO3` [WIN55212-2], the negative logarithm of the Ki (pKi) is 7.59.
`CCCCC/C=C\C/C=C\C/C=C\C/C=C\CCCCCC(=O)NCCO` gave a negative logarithm of the Ki (pKi) of 5.62.
In the case of `CC(=O)Oc1cc(OC(C)CCCc2ccccc2)cc2c1C1CC(O)CCC1C(C)N2` (centres undefined) [NSC_107822] it was 7.89; in that of `CCCCCCC(C)(C)c1ccc([C@H]2C[C@@H](O)CC[C@@H]2CCCO)c(O)c1` [CP-56667 [(+)-AC],XV], 8.42.
